Several values for one entry are separate records, joined by “and”; a condition that tells them apart may be missing. Equal entries are not always repeated. Toxic doses and inconclusive results are not listed. The calls were made as follows: active = survival T/C of 150% or more; inactive = T/C below 125% in these data.
System: BDF1 mice, P388 leukemia ip, median survival T/C
Experiment: NCI In Vivo Anticancer Drug Screen. Data for tumor model P388 Leukemia (intraperitoneal) in B6D2F1 (BDF1) mice
Settings: endpoint: median survival time, higher = longer survival
Summary of the method: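 Each value expresses how treatment altered survival: treated-mouse outcome over vehicle-mouse outcome, both groups bearing the transplanted tumour.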

[1] = dose: 12.5 mg/kg/injection, schedule: Q04DX003 (ip), vehicle: Klucel (hydroxypropylcellulose) (HPC)
[2] = dose: 25.0 mg/kg/injection, schedule: Q04DX003 (ip), vehicle: Klucel (hydroxypropylcellulose) (HPC)
[3] = dose: 50.0 mg/kg/injection, schedule: Q04DX003 (ip), vehicle: Klucel (hydroxypropylcellulose) (HPC)
[4] = dose: 100.0 mg/kg/injection, schedule: Q04DX003 (ip), vehicle: Klucel (hydroxypropylcellulose) (HPC)
[5] = dose: 200.0 mg/kg/injection, schedule: Q04DX003 (ip), vehicle: Klucel (hydroxypropylcellulose) (HPC)
[6] = dose: 400.0 mg/kg/injection, schedule: Q04DX003 (ip), vehicle: Klucel (hydroxypropylcellulose) (HPC)
[7] = dose: 100.0 mg/kg/injection, schedule: Q01DX009 (ip), vehicle: Klucel (hydroxypropylcellulose) (HPC)
[8] = dose: 100.0 mg/kg/injection, schedule: Q04DX003 (ip), vehicle: saline with Tween-80
[9] = dose: 200.0 mg/kg/injection, schedule: Q04DX003 (ip), vehicle: saline with Tween-80
[10] = dose: 400.0 mg/kg/injection, schedule: Q04DX003 (ip), vehicle: saline with Tween-80
[11] = dose: 100.0 mg/kg/injection, schedule: Q04DX003 (ip), vehicle: saline sonified
[12] = dose: 400.0 mg/kg/injection, schedule: Q04DX003 (ip), vehicle: saline sonified
[13] = dose: 100.0 mg/kg/injection, schedule: Q01DX009 (ip), vehicle: saline with Tween-80
[14] = dose: 200.0 mg/kg/injection, schedule: Q04DX003 (ip), vehicle: saline sonified

Measured: T/C

Nc1ccccc1SC1CC(=O)N(c2ccc(I)cc2)C1=O (stereo not drawn)
inactive: [1] 95 % of control | dose: 25.0 mg/kg/injection, schedule: Q01DX001 (ip), vehicle: Klucel (hydroxypropylcellulose) (HPC) 108 % of control | [2] 95 % of control | dose: 50.0 mg/kg/injection, schedule: Q01DX001 (ip), vehicle: Klucel (hydroxypropylcellulose) (HPC) 104 % of control | [3] 100 % of control | dose: 100.0 mg/kg/injection, schedule: Q01DX001 (ip), vehicle: Klucel (hydroxypropylcellulose) (HPC) 108 % of control | [4] 112 % of control

O=C(NCCCl)Nc1cccc2cc3ccccc3cc12
inactive: [4] 100 % of control | [5] 95 % of control | [6] 90 % of control

COc1cc2ccc(C(C)NCC(=O)O)cc2cc1OC (stereo not drawn)
inactive: [7] 100 % of control | [4] 100 % of control | dose: 200.0 mg/kg/injection, schedule: Q01DX009 (ip), vehicle: Klucel (hydroxypropylcellulose) (HPC) 104 % of control | [5] 100 % of control | dose: 400.0 mg/kg/injection, schedule: Q01DX009 (ip), vehicle: Klucel (hydroxypropylcellulose) (HPC) 109 % of control | [6] 109 % of control

CS(=O)(=O)OCCn1c(=O)n(CCOS(C)(=O)=O)c(=O)n(CCOS(C)(=O)=O)c1=O
inactive: dose: 100.0 mg/kg/injection, schedule: Q01DX009 (ip), vehicle: saline sonified 90 % of control | [8] 90 % of control | dose: 200.0 mg/kg/injection, schedule: Q01DX009 (ip), vehicle: saline sonified 110 % of control | [9] 100 % of control | dose: 400.0 mg/kg/injection, schedule: Q01DX009 (ip), vehicle: saline sonified 90 % of control | [10] 100 % of control

CN(C)C(=S)N=Nc1c(O)[nH]c2ccccc12
inactive: dose: 1.56 mg/kg/injection, schedule: Q01DX009 (ip), vehicle: saline with Tween-80 109 % of control | dose: 3.13 mg/kg/injection, schedule: Q01DX009 (ip), vehicle: saline with Tween-80 100 % of control | dose: 6.25 mg/kg/injection, schedule: Q01DX009 (ip), vehicle: saline with Tween-80 100 % of control | dose: 12.5 mg/kg/injection, schedule: Q01DX009 (ip), vehicle: saline with Tween-80 92 % of control | dose: 25.0 mg/kg/injection, schedule: Q04DX003 (ip), vehicle: saline with Tween-80 105 % of control | dose: 50.0 mg/kg/injection, schedule: Q04DX003 (ip), vehicle: saline with Tween-80 100 % of control | [11] 90 % of control | [8] 100 % of control | [12] 90 % of control

COC(=O)C(CCCCNC(=O)OCc1ccccc1)NC(=O)C(CCCCNC(=O)OCc1ccccc1)NC(=O)OC(C)(C)C (stereo not drawn)
inactive: dose: 200.0 mg/kg/injection, schedule: Q01DX005 (ip), vehicle: saline with Tween-80 90 % of control

CC[C@H]1CN2CCc3cc(OC)c(OC)cc3[C@@H]2C[C@@H]1C[C@H]1NCCc2cc(O)c(OC)cc21
active: dose: 0.25 mg/kg/injection, schedule: Q01DX010 (ip), vehicle: saline 159 % of control | dose: 0.5 mg/kg/injection, schedule: Q01DX010 (ip), vehicle: saline 150 % of control | dose: 2.0 mg/kg/injection, schedule: Q01DX010 (ip), vehicle: saline 150 % of control and 190 % of control
inactive: dose: 8.0 mg/kg/injection, schedule: Q01DX010 (ip), vehicle: saline 95 % of control

CCCCC(NC(C)=O)C(=O)O (stereo not drawn)
inactive: [13] 119 % of control | dose: 400.0 mg/kg/injection, schedule: Q01DX009 (ip), vehicle: saline with Tween-80 113 % of control

N#Cc1cnn2c(=O)[nH]cnc12
inactive: dose: 50.0 mg/kg/injection, schedule: Q01DX009 (ip), vehicle: other 100 % of control | dose: 100.0 mg/kg/injection, schedule: Q01DX009 (ip), vehicle: other 100 % of control | dose: 100.0 mg/kg/injection, schedule: Q04DX003 (ip), vehicle: saline 100 % of control | dose: 200.0 mg/kg/injection, schedule: Q01DX009 (ip), vehicle: other 100 % of control | dose: 200.0 mg/kg/injection, schedule: Q04DX003 (ip), vehicle: saline 100 % of control | dose: 400.0 mg/kg/injection, schedule: Q04DX003 (ip), vehicle: saline 118 % of control

c1ccc(CCN2CCC(CCc3c[nH]c4ccccc34)CC2)cc1
inactive: dose: 12.5 mg/kg/injection, schedule: Q01DX010 (ip), vehicle: saline 100 % of control | dose: 25.0 mg/kg/injection, schedule: Q01DX010 (ip), vehicle: saline 109 % of control | dose: 50.0 mg/kg/injection, schedule: Q01DX010 (ip), vehicle: saline 122 % of control | dose: 100.0 mg/kg/injection, schedule: Q01DX010 (ip), vehicle: saline 114 % of control

Cc1cc(C)c2nc3c(c(C(O)C4CCCCN4)c2c1)CC/C3=C\c1ccc(Cl)cc1 (stereo not drawn)
inactive: dose: 50.0 mg/kg/injection, schedule: Q01DX009 (ip), vehicle: saline with Tween-80 114 % of control | [13] 100 % of control | dose: 200.0 mg/kg/injection, schedule: Q01DX009 (ip), vehicle: saline with Tween-80 116 % of control

O=Cc1csc2ncccc12
inactive: [8] 91 % of control | [9] 100 % of control | [10] 95 % of control

CP(C)c1ccccc1
inactive: dose: 25.0 mg/kg/injection, schedule: Q01DX009 (ip), vehicle: Klucel (hydroxypropylcellulose) (HPC) 92 % of control | dose: 50.0 mg/kg/injection, schedule: Q01DX009 (ip), vehicle: Klucel (hydroxypropylcellulose) (HPC) 96 % of control | [3] 100 % of control | [7] 103 % of control | [4] 123 % of control

CC(C)(C)CC(C)(C)c1c(O)cc(O)cc1Cl
inactive: dose: 12.5 mg/kg/injection, schedule: Q01DX009 (ip), vehicle: gum acacia 99 % of control | dose: 25.0 mg/kg/injection, schedule: Q01DX009 (ip), vehicle: gum acacia 91 % of control | dose: 50.0 mg/kg/injection, schedule: Q01DX009 (ip), vehicle: gum acacia 89 % of control

CCCCCCCCCOc1ccc(C=O)cc1OC
inactive: dose: 100.0 mg/kg/injection, schedule: Q01DX001 (ip), vehicle: saline sonified 100 % of control | dose: 200.0 mg/kg/injection, schedule: Q01DX001 (ip), vehicle: saline sonified 90 % of control | dose: 400.0 mg/kg/injection, schedule: Q01DX001 (ip), vehicle: saline sonified 100 % of control

O=C(O)CCCc1ccc(Oc2ccccc2)cc1
inactive: dose: 100.0 mg/kg/injection, schedule: Q04DX003 (ip), vehicle: other 92 % of control | dose: 200.0 mg/kg/injection, schedule: Q04DX003 (ip), vehicle: other 93 % of control | dose: 400.0 mg/kg/injection, schedule: Q04DX003 (ip), vehicle: other 86 % of control

COc1ncnc2c1c(C#N)cn2C1OC(CO)C(O)C1O (stereo not drawn)
inactive: dose: 6.25 mg/kg/injection, schedule: Q01DX009 (ip), vehicle: saline 102 % of control | dose: 12.5 mg/kg/injection, schedule: Q01DX009 (ip), vehicle: saline 102 % of control | dose: 25.0 mg/kg/injection, schedule: Q01DX009 (ip), vehicle: saline 102 % of control | dose: 50.0 mg/kg/injection, schedule: Q01DX009 (ip), vehicle: saline 95 % of control

O=S(=O)(ON=C1C=CC(=NOS(=O)(=O)c2ccccc2)C=C1)c1ccccc1
inactive: dose: 3.13 mg/kg/injection, schedule: Q04DX003 (ip), vehicle: Klucel (hydroxypropylcellulose) (HPC) 109 % of control | dose: 6.25 mg/kg/injection, schedule: Q04DX003 (ip), vehicle: Klucel (hydroxypropylcellulose) (HPC) 111 % of control | [1] 109 % of control | [2] 109 % of control

CSC(=S)NNC(=O)c1cccc([N+](=O)[O-])c1
inactive: dose: 6.25 mg/kg/injection, schedule: Q04DX003 (ip), vehicle: saline sonified 110 % of control | dose: 12.5 mg/kg/injection, schedule: Q04DX003 (ip), vehicle: saline sonified 105 % of control | dose: 25.0 mg/kg/injection, schedule: Q04DX003 (ip), vehicle: saline sonified 100 % of control

COc1cc(OC)cc(C(N)=O)c1
inactive: [3] 100 % of control | [4] 95 % of control | [5] 100 % of control

CC(C)c1ccccc1OS(=O)(=O)c1ccc([N+](=O)[O-])cc1
inactive: [11] 90 % of control | [14] 95 % of control | [12] 95 % of control

O=C(Nc1ccccc1C(=O)c1ccccn1)c1ccccc1
inactive: [11] 90 % of control | [14] 90 % of control | [12] 90 % of control
